The values that follow come from publication PMC4885601 (Journal of Medicinal Chemistry, 2016).

The target of experiment [1] is T1, δ-opioid receptor (DOR) (Rattus norvegicus, UniProt P33533). Particulars: cited from earlier work.
For experiment [2], the system named is mouse. The experiment can be described thus: In vivo warm water tail withdrawal. Particulars: ip, up to 10 mg/kg.
The target in experiment [3] is κ-opioid receptor (KOR) (Homo sapiens, UniProt P41145). The experiment can be described thus: Stimulation of [35S]GTPγS binding at KOR. To be noted: percent maximal stimulation relative to U69,593 at 10 μM. It counts as biochemical. In general terms: GTPγS resists hydrolysis and so accumulates on activated G proteins.
Chain of κ-opioid receptor (KOR) (P41145 whole entry): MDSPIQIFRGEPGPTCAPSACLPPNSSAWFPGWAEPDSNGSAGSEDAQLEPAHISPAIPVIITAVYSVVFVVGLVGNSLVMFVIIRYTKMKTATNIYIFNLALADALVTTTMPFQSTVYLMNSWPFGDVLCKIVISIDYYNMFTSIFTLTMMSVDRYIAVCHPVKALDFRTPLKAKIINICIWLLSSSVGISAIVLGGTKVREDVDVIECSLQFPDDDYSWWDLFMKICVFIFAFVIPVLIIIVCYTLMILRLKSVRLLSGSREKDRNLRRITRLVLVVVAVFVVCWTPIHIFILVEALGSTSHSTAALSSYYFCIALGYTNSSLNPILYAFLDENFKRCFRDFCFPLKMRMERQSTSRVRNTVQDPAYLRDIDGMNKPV
Experiment [4] has as its target T1, δ-opioid receptor (DOR). The experiment can be described thus: Stimulation of [35S]GTPγS binding at DOR. It counts as biochemical. Particulars: percent maximal stimulation relative to DPDPE at 10 μM.
Experiment [5] relates to mouse. Particulars: WWTW assay; cited from earlier work.

Structures are written as SMILES. Read-outs that look alike come from different tables or passages of the source.

T1 sequence (P33533 whole entry): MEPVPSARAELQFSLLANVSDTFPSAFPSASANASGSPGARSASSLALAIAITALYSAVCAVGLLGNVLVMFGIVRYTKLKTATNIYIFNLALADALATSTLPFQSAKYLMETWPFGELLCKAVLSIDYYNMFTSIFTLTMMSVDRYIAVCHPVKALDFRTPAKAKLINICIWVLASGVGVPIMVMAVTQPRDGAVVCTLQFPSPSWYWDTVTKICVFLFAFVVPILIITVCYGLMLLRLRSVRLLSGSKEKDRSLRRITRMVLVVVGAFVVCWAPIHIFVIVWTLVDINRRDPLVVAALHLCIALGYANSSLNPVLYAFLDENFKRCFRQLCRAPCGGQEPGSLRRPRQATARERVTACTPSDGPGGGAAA

`CC(=O)N1CC[C@@H](NC(=O)[C@@H](N)Cc2c(C)cc(O)cc2C)c2cc(Cc3ccccc3)ccc21` [4b, (S)-N-((R)-1-Acetyl-6-benzyl-1,2,3,4-tetrahydroquinolin-4-yl)-2-amino-3-(4-hydroxy-2,6-dimethylphenyl)propanamide]: the “% stimulation DOR” value in experiment [1] was 26%.

As to `Cc1cc(O)cc(C)c1C[C@H](N)C(=O)N[C@@H]1CCN(C(=O)C2CC2)c2ccc(Cc3ccccc3)cc21` [4f, (S)-2-Amino-N-((R)-6-benzyl-1-(cyclopropanecarbonyl)-1,2,3,4-tetrahydroquinolin-4-yl)-3-(4-hydroxy-2,6-dimethylphenyl)propanamide], the “antinociception in the WWTW assay” value in experiment [2] is “partial antinociception”.

Regarding `Cc1cc(O)cc(C)c1C[C@H](N)C(=O)N[C@@H]1CCN(C(=O)C2CCC2)c2ccc(Cc3ccccc3)cc21` [4g, (S)-2-Amino-N-((R)-6-benzyl-1-(cyclobutanecarbonyl)-1,2,3,4-tetrahydroquinolin-4-yl)-3-(4-hydroxy-2,6-dimethylphenyl)propanamide], in experiment [3], the “% stimulation KOR” value is listed as “no efficacy”.

`COC(=O)N1CC[C@@H](NC(=O)[C@@H](N)Cc2c(C)cc(O)cc2C)c2cc(Cc3ccccc3)ccc21` [4h, Methyl (R)-4-((S)-2-Amino-3-(4-hydroxy-2,6-dimethylphenyl)propanamido)-6-benzyl-3,4-dihydroquinoline-1(2H)-carboxylate]: in experiment [2], the “antinociception in the WWTW assay” value was “full in vivo antinociception”.

Turning to `Cc1cc(O)cc(C)c1C[C@H](N)C(=O)N[C@@H]1CCN(C(=O)c2ccccc2)c2ccc(Cc3ccccc3)cc21` [4j, (S)-2-Amino-N-((R)-1-benzoyl-6-benzyl-1,2,3,4-tetrahydroquinolin-4-yl)-3-(4-hydroxy-2,6-dimethylphenyl)propanamide], the “% stimulation DOR” value in experiment [4] is “no stimulation”.

For the compound `CC(=O)N1CC[C@@H](NC(=O)[C@@H](N)Cc2c(C)cc(O)cc2C)c2cc(Cc3ccc4ccccc4c3)ccc21` [15b, (S)-N-((R)-1-Acetyl-6-(naphthalen-2-ylmethyl)-1,2,3,4-tetrahydroquinolin-4-yl)-2-amino-3-(4-hydroxy-2,6-dimethylphenyl)propanamide], in experiment [5], the “duration of in vivo antinociception” value is given as “greater than 3 h”.
